The record followed here is article PMC12624573, “The antigen presentation landscape of cytokine-stressed human pancreatic islets” (Cell reports, 2025).

The test system of one experiment is CD8+ T cells from PBMC. Description: IFN-γ ELISpot, PBMC-derived in vitro expanded CD8+ T cell lines. The experiment is classed as cell-based, human. More on the design: key to T cell recognition by PBMC from a T1D donor: E: T cell recognition by PBMC from a T1D donor was tested and verified; see Figure 5.
Conditions: not given
For TLDGSLHAV [peptide 79, 11], the “IFN-γ ELISpot response of expanded CD8+ T cells” value is listed as “Responses”.

Still in this experiment, the particulars now being: A2 Set Peptides; PBMC T cell lines; responding donors/donors tested.
In the case of RYLEQLHQL [compound 135, 17], the “T1D Donor T cell response” value was 0/4 and the “non-T1D Donor T cell response” value is on record as 0/2.
Take SLAEGLRTV [compound 120, 16]: the “T1D Donor T cell response” value is given as 0/4 and the “non-T1D Donor T cell response” value is 0/2.
SLIGHLQTL [compound 95, 13]: the “T1D Donor T cell response” value is 1/4 and the “non-T1D Donor T cell response” value was 0/2.
Regarding SLLQGSPHL [compound 122, 16], the “T1D Donor T cell response” value is given as 0/4 and the “non-T1D Donor T cell response” value is listed as 0/2.
On the same counts, the results for TLDGSLHAV [peptide 79, 11] are 1/5 and 0/2.
Turning to TLVEAIKQV [compound 113, 15], the “non-T1D Donor T cell response” value is reported as 0/2.
On to VIANEIEKV [compound 88, 12], for which the “T1D Donor T cell response” value was 0/5 and the “non-T1D Donor T cell response” value is recorded as 0/2.
In the case of VLAPRVLRA [compound 126, 16], the “T1D Donor T cell response” value is 0/4 and the “non-T1D Donor T cell response” value is 0/2.
Regarding VLHEGTNFV [compound 104, 14], the “T1D Donor T cell response” value is given as 0/4 and the “non-T1D Donor T cell response” value is 0/2.
On the same counts, the results for YINEKNVAL [compound 105, 14] are 0/4 and 0/2.
YLHSQVVSV [compound 139, 18]: the “T1D Donor T cell response” value is listed as 0/4 and the “non-T1D Donor T cell response” value is reported as 0/2.
Consider YLKHRLIVV [compound 134, 17], for which the “T1D Donor T cell response” value is 0/4 and the “non-T1D Donor T cell response” value is on record as 0/2.
Consider YLLEKNRVV [compound 117, 15], for which the “T1D Donor T cell response” value was 0/4 and the “non-T1D Donor T cell response” value is on record as 0/2.
For YLLEKSRVV [compound 118, 15], the “T1D Donor T cell response” value is recorded as 0/4 and the “non-T1D Donor T cell response” value is on record as 0/2.

Staying with this experiment, now noted: HPAP-A2 Pool Peptides; PBMC T cell lines; responding donors/donors tested.
In the case of TAISRIYTV [compound 158], the “T1D Donor T cell response” value is 0/4 and the “non-T1D Donor T cell response” value is 0/4.
On to VLAFLVHEL [compound 156], for which the “T1D Donor T cell response” value is recorded as 1/5 and the “non-T1D Donor T cell response” value is given as 0/4.

The experiment is the same for the next values; noted with them: MHC-I peptides; superscript E on the peptide; F = verified with C1R-A2 cells.
For SLIGHLQTL, the “T cell recognition by PBMC from a T1D donor” value is “SLIGHLQTL ^ E”.
Still for that read-out and setting: then TLDGSLHAV, with “TLDGSLHAV ^ E”.

A further experiment has as its system CD4+ T cells from PBMC. Description: IFN-γ ELISpot, PBMC-derived in vitro expanded CD4+ T cell lines. More on the design: key to T cell recognition by PBMC from a T1D donor (mark E) / T cell recognition by PBMC from a T1D donor: E: T cell recognition by PBMC from a T1D donor was tested and verified; see Figure 5. The experiment is classed as cell-based, human. As to conditions: DR3/DQ Set Peptides; PBMC T cell lines; responding donors/donors tested.
As for AELEDDFKEGYLE [peptide 2], the “T1D Donor T cell response” value is on record as 2/4 and the “non-T1D Donor T cell response” value is 1/2.
Turning to APGYLAITKKVAVPY [compound 30], the “T1D Donor T cell response” value is recorded as 3/4 and the “non-T1D Donor T cell response” value is reported as 1/2.
Take DDALVRQDAQDLYEAG [compound 9]: the “T1D Donor T cell response” value is listed as 0/4 and the “non-T1D Donor T cell response” value was 0/2.
On the same counts, the results for DLNGDLTATREEF [compound 5] are 0/4 and 0/2.
For the substance EDYYVSKSAVVFGG [compound 28], the “T1D Donor T cell response” value is recorded as 2/4 and the “non-T1D Donor T cell response” value is listed as 1/2.
Turning to ELSAERPLNEQIAEAE [peptide 32], the “T1D Donor T cell response” value is given as 1/4 and the “non-T1D Donor T cell response” value is recorded as 0/2.
The like results for ETDKEQLTAEAKELRQK [peptide 6] were, in that order, 1/4 and 0/2.
FQYIIDNKGIDSDAS [compound 31]: the “T1D Donor T cell response” value is on record as 1/4 and the “non-T1D Donor T cell response” value was 0/2.
Turning to GKRAIILETRQHRLF [peptide 1], the “T1D Donor T cell response” value is 0/4 and the “non-T1D Donor T cell response” value was 0/2.
Consider GREEITYDTPFKREKS [compound 16], for which the “T1D Donor T cell response” value was 3/4 and the “non-T1D Donor T cell response” value is 0/2.
As to GSDDWAYDQGIRYS [compound 21], the “T1D Donor T cell response” value was 3/4 and the “non-T1D Donor T cell response” value is listed as 0/2.
On to GVSDQSFQVEEAKRIKQ [compound 25], for which the “T1D Donor T cell response” value is given as 0/4 and the “non-T1D Donor T cell response” value is 0/2.
Take IDQINTDLNLERSHA [compound 17]: the “T1D Donor T cell response” value is on record as 0/4 and the “non-T1D Donor T cell response” value was 0/2.

Staying with this experiment, now noted: HPAP-DR3 Pool Peptides; PBMC T cell lines; responding donors/donors tested.
For APGYLAITKKVAVPY [compound 151], the “T1D Donor T cell response” value was 0/4 and the “non-T1D Donor T cell response” value is listed as 1/4.
GFPTIYFSPANKKLNPK [compound 154]: the “T1D Donor T cell response” value is given as 0/4 and the “non-T1D Donor T cell response” value is 0/4.
As for IDSLIELSTKLHLPADD [compound 153], the “T1D Donor T cell response” value was 0/4 and the “non-T1D Donor T cell response” value is reported as 0/4.

Staying with this experiment, now noted: MHC-II peptides; superscript E on the peptide; G = verified with QBL cells.
Consider “AVPEEEGPTVVLXPHPSLG [AVPEEEGPTVVLXPHPSLG (X=deamindated N=asp)]”, for which the “T cell recognition by PBMC from a T1D donor” value was “AVPEEEGPTVVLXPHPSLG^E,G (X=deamindated N=asp)”.
On to “AVPEEEGPTVVLXPHPSLG [AVPEEEGPTVVLXPHPSLG (X=deamindated N=isoasp)]”, for which the “T cell recognition by PBMC from a T1D donor” value is given as “AVPEEEGPTVVLXPHPSLG^E,G (X=deamindated N=isoasp)”.

The experiment is the same for the next values; noted with them: MHC-II peptides; tested and verified, see Figure 5.
For AELEDDFKEGYLE, the “T cell recognition by PBMC from a T1D donor (mark E)” value (from here on “T cell recognition … (mark E)”) is “AE LEDDFKEGY LE ^ E”.
As for APGY LAITKKVAV PY, the “T cell recognition … (mark E)” value was “E”.
Regarding EDYYVSKSAVVFGG, the “T cell recognition … (mark E)” value is “ED YYVSKSAVV FGG ^ E”.
As for ELSAERPLNEQIAEAE, the “T cell recognition … (mark E)” value is recorded as “ELSAERP LNEQIAEAE ^ E”.
In the case of ETDKEQLTAEAKELRQK, the “T cell recognition … (mark E)” value was “ETDKEQ LTAEAKELR QK ^ E”.
Take FQYIIDNKGIDSDAS: the “T cell recognition … (mark E)” value is on record as “FQ YIIDNKGID SDAS ^ E”.
With GREEITYDTPFKREKS, the “T cell recognition … (mark E)” value is listed as “GREE ITYDTPFKR EKS ^ E”.
In the case of GSDDWAYDQGIRYS, the “T cell recognition … (mark E)” value was “GSDD WAYDQGIRY S ^ E”.

The same experiment, now with this note: PTM and unmodified native Pool Peptides (pool PTM 1), long peptides; PBMC T cell lines; responding donors/donors tested.
For “AEDLQVGEVELGGGPGAGSLQPL [145-1, PTM peptide, E=deamidated Q=glutamic acid, pool PTM DR3]”, the “T1D Donor T cell response” value was 0/4 and the “non-T1D Donor T cell response” value is 0/4.
On to “AEDLQVGQVELGGGPGAGSLQPL [compound 145, non-modified native peptide, pool PTM DR3]”, for which the “T1D Donor T cell response” value is listed as 0/4 and the “non-T1D Donor T cell response” value is reported as 0/4.
Regarding “AVPEEEGPTVVLNPHPSLG [peptide 148, non-modified native peptide from CHGA, pool PTM DR3]”, the “T1D Donor T cell response” value is recorded as 0/4 and the “non-T1D Donor T cell response” value is on record as 0/4.
“ELSAERPLNEQIAEAE [compound 144, non-modified native peptide, pool PTM DR3]”: the “T1D Donor T cell response” value is listed as 0/4 and the “non-T1D Donor T cell response” value is reported as 0/4.
For “ELXAERPLNEQIAEAE [144-1, PTM peptide, X=dehydroS=dehydroAla, pool PTM DR3]”, the “T1D Donor T cell response” value is given as 0/4 and the “non-T1D Donor T cell response” value is recorded as 0/4.
Consider GSHLVEALYLVCGEXGF [146-2], for which the “T1D Donor T cell response” value is 0/4 and the “non-T1D Donor T cell response” value was 0/4.

The same experiment, now with this note: SEC (Secretory) DR3 Peptides Set; PBMC T cell lines; responding donors/donors tested.
Turning to “AAIQDGLAKGENDETVSNT [compound 190, secretory hormone eluted peptide, pool SEC DR3]”, the “T1D Donor T cell response” value was 0/4 and the “non-T1D Donor T cell response” value is 0/4.
For the substance “DDPDGLHQLDGTPLTAED [compound 189, secretory hormone eluted peptide from SCG3, pool SEC DR3]”, the “T1D Donor T cell response” value is listed as 0/4 and the “non-T1D Donor T cell response” value was 1/4.
For “DNMNDNFLEGEEENELTLN [compound 185, secretory hormone eluted peptide, pool SEC DR3]”, the “T1D Donor T cell response” value is on record as 0/4 and the “non-T1D Donor T cell response” value is recorded as 0/4.
Take “ELSAERPLNEQIAEAE [compound 186, secretory hormone eluted peptide from SCG3, pool SEC DR3]”: the “T1D Donor T cell response” value is given as 0/4 and the “non-T1D Donor T cell response” value is recorded as 1/4.
With “GRGGEPRAYFMSDTREE [compound 183, secretory hormone eluted peptide, pool SEC DR3]”, the “T1D Donor T cell response” value is 0/4 and the “non-T1D Donor T cell response” value is given as 0/4.
As to “GSEEYRAPRPQSEESWDEED [compound 181, secretory hormone eluted peptide, pool SEC DR3]”, the “T1D Donor T cell response” value is listed as 0/4 and the “non-T1D Donor T cell response” value is on record as 1/4.
Consider “HPQGAWKELDRNY [compound 184, secretory hormone eluted peptide from SCG1, pool SEC DR3]”, for which the “T1D Donor T cell response” value is on record as 0/4 and the “non-T1D Donor T cell response” value was 1/4.

The experiment is the same for the next values; noted with them: T1D donors, PBMC-derived lines (Figure 5J).
Turning to AELEDDFKEGYLE [peptide 2], the “Number of donors whose CD4 T cells recognized the peptide (IFN-γ ELISpot)” value is recorded as “three of the donors”.
As to APGYLAITKKVAVPY [compound 30], the “Number of donors whose CD4 T cells recognized the peptide (IFN-γ ELISpot)” value is listed as “three of the donors”.
Still for that read-out and setting: under GREEITYDTPFKREKS [compound 16] stands “three of the donors”.

Still in this experiment, the particulars now being: control donor LSLP-074; frequencies ∼10-fold lower than for T1D-004 (Figures 5E, 5F, S5B).
As for AELEDDFKEGYLE [peptide 2], the “IFN-γ ELISpot response of expanded CD4+ T cells” value was “responded”.

Staying with this experiment, now noted: control donor LSLP-153; line expanded with megapool HPAP-DR3 + SEC-DR3, tested with individual peptides (Figure S5C).
Consider APGYLAITKKVAVPY [compound 151], for which the “IFN-γ ELISpot response of expanded CD4 T cells” value is “positive response”.
“DDPDGLHQLDGTPLTAED [compound 189, secretory hormone eluted peptide from SCG3, pool SEC DR3]”: the “IFN-γ ELISpot response of expanded CD4 T cells” value was “IFN-γ responses”.
For the substance “ELSAERPLNEQIAEAE [compound 186, secretory hormone eluted peptide from SCG3, pool SEC DR3]”, the “IFN-γ ELISpot response of expanded CD4 T cells” value was “IFN-γ responses”.
“HPQGAWKELDRNY [compound 184, secretory hormone eluted peptide from SCG1, pool SEC DR3]”: the “IFN-γ ELISpot response of expanded CD4 T cells” value is on record as “IFN-γ responses”.
